Results reported in paper PMC11397035, “In Vitro and In Silico Analysis of PTP1B Inhibitors from Cleistocalyx operculatus Leaves and Their Effect on Glucose Uptake” (Nutrients, 2024).
“Also recorded” adds a separate entry of the source. Where two headings read alike, the source gives them in different places.

How the values were obtained:
PTP1B [1] = molecular target: T1, PTP1B (Homo sapiens, UniProt P18031); experiment: In vitro PTP1B inhibition assay (p-NPP substrate); type: biochemical
T1 construct: purchased Enzo Life Sciences Inc
T1 sequence (P18031 1-435): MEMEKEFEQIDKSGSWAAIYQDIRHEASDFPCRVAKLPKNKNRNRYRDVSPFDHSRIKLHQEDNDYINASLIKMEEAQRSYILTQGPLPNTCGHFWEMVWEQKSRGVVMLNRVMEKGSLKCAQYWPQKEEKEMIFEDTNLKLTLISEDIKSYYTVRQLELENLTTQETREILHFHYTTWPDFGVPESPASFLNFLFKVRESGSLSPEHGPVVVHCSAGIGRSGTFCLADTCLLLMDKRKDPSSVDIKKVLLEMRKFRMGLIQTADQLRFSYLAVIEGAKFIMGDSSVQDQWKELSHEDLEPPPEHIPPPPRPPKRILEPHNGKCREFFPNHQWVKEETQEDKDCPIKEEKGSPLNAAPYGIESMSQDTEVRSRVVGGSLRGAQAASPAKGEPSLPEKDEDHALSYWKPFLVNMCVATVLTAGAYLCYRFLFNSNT
Procedure: PTP1B enzyme inhibition activity was assessed following a previously described protocol. […] It was followed by incubation at 37 °C for 30 min. After that, 10 μL of 10 M NaOH was added to quench the reaction. […] The non-enzymatic reaction of the substrate was considered and accounted for by comparing data to a control experiment without the PTP1B enzyme. IC50 values were calculated using non-linear regression in GraphPad Prism 10 (GraphPad Software, Inc., San Diego, CA, USA), based on triplicate experiments.

3T3-L1 adipocytes [2] = experiment: Glucose uptake using the 2-NBDG probe in differentiated 3T3-L1 adipocytes; type: cell-based; conditions: 1 h; for glucose uptake (2-NBDG) stimulatory effect: 20 μM; for concentration-response of glucose uptake stimulation: 5, 10, and 20 μM
Procedure: 3T3-L1 fibroblasts were cultured in DMEM (HyClone, Logan, UT, USA) supplemented with 10% calf serum, 100 U/mL penicillin, and 100 μg/mL streptomycin from Gibco (Grand Island, NY, USA). The cells were incubated at 37 °C with 5% CO2. Cells were differentiated after treatment with DMEM enriched with 10% fetal bovine serum (FBS) (HyClone, Logan, UT, USA), 1 μM dexamethasone (Sigma, St. Louis, MO, USA), 520 μM 3-isobutyl-1-methylxanthine (Sigma, St. Louis, MO, USA), and 1 μg/mL insulin (Roche, Mannheim, Germany). After 48 h, the media were changed with fresh DMEM containing 10% FBS, 1 μg/mL insulin, 100 U/mL penicillin, and 100 μg/mL streptomycin. Every 48 ours, the media were replaced until the induction of adipogenesis. Intracellular lipid droplets appeared after 4 to 6 days of incubation.
In vitro experiments measured glucose uptake in 3T3-L1 adipocytes using 2-NBDG, a fluorescent glucose derivative (Invitrogen, Eugene, OR, USA). Cells were cultured on 96-well plates in a glucose-free medium supplemented with 10% FBS. After incubation, cells were treated with either insulin (as a positive control) or the test compounds in the presence or absence of 2-NBDG and were further incubated for an additional hour. Cells were washed with cold phosphate-buffered saline (PBS). The 2-NBDG fluorescence was quantified by measuring the signal intensity at excitation/emission wavelengths of 450/535 nm using a SpectraMax Gemini XPS fluorescence microplate reader (Molecular Devices, San Jose, CA, USA). For cellular transport studies involving 2-NBDG, 3T3-L1 adipocytes were grown on sterilized glass coverslips in a glucose-free medium containing 10% FBS for 24 h. After treatment with 2-NBDG, cells were washed with cold PBS. Fluorescent images were obtained with an Olympus IX 70 fluorescence microscope (Olympus Corporation, Tokyo, Japan) to quantify the cellular transport of 2-NBDG.

PTP1B [3] = molecular target: T1, PTP1B; experiment: Kinetic analysis with PTP1B (Lineweaver–Burk and Dixon plots); type: biochemical; conditions: for Ki: determined by Dixon plot interpretation; for Inhibition Type: determined by Lineweaver–Burk plots
Procedure: Reaction velocity was measured at different concentrations of tested compounds for kinetic analysis. The tested compounds or DMSO were preincubated with the enzyme and buffer solution at 37 °C for 2 min, followed by adding 50 μL of substrate (p-NPP) at different concentrations. The initial reaction velocities were monitored at 37 °C at 405 nm for 15 min. The kinetic reaction slopes were calculated based on the absorbance increments observed between 2 and 10 min (within the linear range). GraphPad Prism 10 (GraphPad Software, Inc., San Diego, CA, USA) was used to graph the double reciprocal Lineweaver–Burk and Dixon plots.

3T3-L1 adipocytes [4] = tested on: 3T3-L1 adipocytes; design: method as in PMID 27765349; conditions: cited from earlier work
[5] = tested on: pre-diabetic male Sprague Dawley rats; design: method as in PMID 29596390; conditions: pre-diabetic male Sprague Dawley rats ref 44; cited from earlier work
[6] = 50% PTP1B inhibitory effect, mean ± S.E.M. of triplicate experiments, six concentrations, read-out: IC50

Structure (SMILES): C=C1CCC23CCC4(C)C5(C)CCC6C(=C)C(O)C(O)CC6(C)C5C5OC5C4(OC2=O)C3C1C (centres unmarked) [Compound 3, Cleistocalyxolide C]
- PTP1B inhibitory activity (in words) (PTP1B [1]): reduced inhibitory effects
- IC50 (PTP1B [1]; [6]): > 20 µM
- glucose uptake (2-NBDG) stimulatory effect (3T3-L1 adipocytes [2]): low glucose uptake stimulation

Structure (SMILES): C=C1[C@@H](O)[C@H](O)C[C@]2(C)[C@H]3CC=C4[C@@H]5[C@@H](C)[C@H](C)CC[C@]5(C(=O)O)CC[C@@]4(C)[C@]3(C)CC[C@@H]12 [Compound 11, ilekudinol B]
- IC50 (PTP1B [1]; [6]): 14.1 ± 0.3 µM

Structure (SMILES): CC1(C)CC[C@]2(CO)CC[C@]3(C)C(=CC[C@@H]4[C@@]5(C)CC[C@H](O)C(C)(C)[C@@H]5CC[C@]43C)[C@@H]2C1 [Compound 14, erythrodiol]
- IC50 (PTP1B [1]; [6]): 3.6 ± 0.2 µM

Structure (SMILES): CC1(C)CC[C@]2(C(=O)O)CC[C@]3(C)C(=CC[C@@H]4[C@@]5(C)C[C@@H](O)[C@H](O)[C@@](C)(CO)[C@@H]5CC[C@]43C)[C@@H]2C1 [Compound 15, arjunolic acid]
- IC50 (PTP1B [1]; [6]): 6.6 ± 0.6 µM

Structure (SMILES): CC1(C)CC[C@]2(C(=O)O)CC[C@]3(C)C(=CC[C@@H]4[C@@]5(C)C[C@@H](O)[C@H](O)C(C)(C)[C@@H]5CC[C@]43C)[C@@H]2C1 [Compound 13, maslinic acid]
- IC50 (PTP1B [1]): 1.28 ± 0.1 µM
- PTP1B inhibitory activity (in words) (PTP1B [1]): significant inhibitory activity
- glucose uptake (2-NBDG) stimulatory effect (3T3-L1 adipocytes [2]): showed glucose uptake stimulatory effects; also recorded: particularly potent glucose uptake stimulatory effects
- concentration-response of glucose uptake stimulation (3T3-L1 adipocytes [2]): dose dependent
- Ki (PTP1B [3]): 3.2 ± 0.6 µM
- Inhibition Type (PTP1B [3]): non-competitive inhibitor of PTP1B
- glucose uptake (3T3-L1 adipocytes [4]): increased glucose uptake
- intracellular Ca2+ concentration (3T3-L1 adipocytes [4]): raised intracellular Ca^2+ concentration
- lipid droplet and triglyceride levels (3T3-L1 adipocytes [4]): reduced lipid droplet and triglyceride levels

Structure (SMILES): C=C(C)[C@@H]1CC[C@]2(C(=O)OC)CC[C@]3(C(=O)O)C(CCC4[C@@]5(C)CC[C@H](O)C(C)(C)C5CC[C@]43C)C12 (some centres unmarked) [Compound 4, melaleucic acid 28-O-methyl ester]
- IC50 (PTP1B [1]; [6]): 8.7 ± 0.6 µM

Structure (SMILES): C=C1C2CC[C@]3(C)C(CC=C4C5[C@](C(=O)O)(CC[C@@H](C)[C@@]5(C)O)CC[C@]43C)[C@@]2(C)C[C@@H](O)[C@@H]1O (stereo partly drawn) [Compound 10, 2α,3β,19α-trihydroxy-24-norurs-4(23),12-dien-28-oic acid]
- IC50 (PTP1B [1]; [6]): 12.2 ± 0.3 µM

Structure (SMILES): C=C(CO)C1CCC2(C(=O)OC)CCC3(C(=O)O)C(CCC4C5(C)CCC(O)C(C)(C)C5CCC43C)C12 (centres unmarked) [Compound 1, Cleistocalyxic acid L]
- IC50 (PTP1B [1]; [6]): > 20 µM

Structure (SMILES): CC1(C)CC[C@]2(C(=O)O)CC[C@]3(C)C(=CCC4[C@@]5(C)C[C@@H](O)[C@H](OC(=O)/C=C\c6ccc(O)cc6)C(C)(C)C5CC[C@]43C)C2C1 (some centres unmarked) [Compound 17, 3-O-(Z)-p-coumaroyl maslinic acid]
- PTP1B inhibitory activity (in words) (PTP1B [1]): strong PTP1B inhibitory activities; also recorded: significant inhibitory activity
- IC50 (PTP1B [1]; [6]): 2.6 ± 0.3 µM
- glucose uptake (2-NBDG) stimulatory effect (3T3-L1 adipocytes [2]): showed glucose uptake stimulatory effects; also recorded: particularly potent glucose uptake stimulatory effects
- concentration-response of glucose uptake stimulation (3T3-L1 adipocytes [2]): dose dependent
- Ki (PTP1B [3]): 2.7 ± 0.4 µM
- Inhibition Type (PTP1B [3]): non-competitive inhibitor of PTP1B

Structure (SMILES): CC1(C)CC[C@]2(C(=O)O)CC[C@]3(C)C(=CCC4[C@@]5(C)C[C@@H](O)[C@H](OC(=O)/C=C/c6ccc(O)cc6)C(C)(C)C5CC[C@]43C)C2C1 (some centres unmarked) [Compound 16, 3-O-(E)-p-coumaroyl maslinic acid]
- IC50 (PTP1B [1]; [6]): 3.6 ± 0.4 µM
- glucose uptake (2-NBDG) stimulatory effect (3T3-L1 adipocytes [2]): showed glucose uptake stimulatory effects

Structure (SMILES): C=C1[C@@H](O)[C@H](O)C[C@]2(C)[C@H]3[C@@H]4O[C@@H]4[C@]45OC(=O)[C@@]6(CC[C@@H](C)[C@H](C)[C@H]64)CC[C@@]5(C)[C@]3(C)CC[C@@H]12 [Compound 7, ulmoidol]
- PTP1B inhibitory activity (in words) (PTP1B [1]): reduced inhibitory effects
- IC50 (PTP1B [1]; [6]): > 20 µM
- glucose uptake (2-NBDG) stimulatory effect (3T3-L1 adipocytes [2]): low glucose uptake stimulation

Structure (SMILES): C=C(C)[C@@H]1CC[C@]2(C(=O)O)CC[C@]3(C)[C@H](CC[C@@H]4[C@@]5(C)C[C@@H](O)[C@H](O)C(C)(C)[C@@H]5CC[C@]43C)[C@@H]12 [Compound 6, alphitolic acid]
- PTP1B inhibitory activity (in words) (PTP1B [1]): strong PTP1B inhibitory activities
- IC50 (PTP1B [1]; [6]): 4.1 ± 0.2 µM
- glucose uptake (2-NBDG) stimulatory effect (3T3-L1 adipocytes [2]): showed glucose uptake stimulatory effects; also recorded: particularly potent glucose uptake stimulatory effects
- concentration-response of glucose uptake stimulation (3T3-L1 adipocytes [2]): dose dependent
- Ki (PTP1B [3]): 2.8 ± 0.4 µM
- Inhibition Type (PTP1B [3]): non-competitive inhibitor of PTP1B

Structure (SMILES): C=C(C)[C@@H]1CC[C@]2(C(=O)O)CC[C@]3(C)[C@H](CC[C@@H]4[C@@]5(C)CC[C@H](O)C(C)(C)[C@@H]5CC[C@]43C)[C@@H]12 [Compound 5, betulinic acid]
- PTP1B inhibitory activity (in words) (PTP1B [1]): significant inhibitory activity
- IC50 (PTP1B [1]; [6]): 2.2 ± 0.1 µM

Structure (SMILES): C[C@@H]1CC[C@]2(C(=O)O)CC[C@]3(C)C(=CCC4[C@@]5(C)C[C@@H](O)[C@H](O)[C@@](C)(CO)C5CC[C@]43C)C2[C@]1(C)O (some centres unmarked) [Compound 9]
- PTP1B inhibitory activity (in words) (PTP1B [1]): strong PTP1B inhibitory activities
- IC50 (PTP1B [1]; [6]): 4.4 ± 0.5 µM
- Ki (PTP1B [3]): 7.6 ± 1.2 µM
- Inhibition Type (PTP1B [3]): non-competitive inhibitor of PTP1B

Structure (SMILES): CC1(C)CCC23CCC4(C)C5(C)CCC6C(C)(C)C(O)C(O)CC6(C)C5CC(O)C4(OC2=O)C3C1 (centres unmarked) [Compound 8, (2a, 3b, 12a)-trihydorxy-olean-28-oic acid 28,13-lactone]
- PTP1B inhibitory activity (in words) (PTP1B [1]): reduced inhibitory effects
- IC50 (PTP1B [1]; [6]): > 20 µM
- glucose uptake (2-NBDG) stimulatory effect (3T3-L1 adipocytes [2]): low glucose uptake stimulation

Structure (SMILES): CC1(C)CC[C@]2(C(=O)O)CC[C@]3(C)C(=CC[C@@H]4[C@@]5(C)CC[C@H](O)C(C)(C)[C@@H]5CC[C@]43C)[C@@H]2C1 [Compound 12, oleanolic acid]
- glucose homeostasis and progression of type 2 diabetes [5]: improve glucose homeostasis and prevent the progression of type 2 diabetes
- glucose uptake (2-NBDG) stimulatory effect (3T3-L1 adipocytes [2]): showed glucose uptake stimulatory effects

Structure (SMILES): C=C(C)C1CCC2(C(=O)OC)CCC3(C(=O)O)C(CCC4C5(C)CCC(O)C(C)(CO)C5CCC43C)C12 (centres unmarked) [Compound 2, Cleistocalyxic acid M]
- IC50 (PTP1B [1]; [6]): > 20 µM
